Reference: PubChem BioAssay (NCI)
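Exposure lasted 48 hours, with cells grown in 96-well plates and compounds tested at five concentrations. The concentration for 50% growth inhibition is given as GI50. At the TGI there is no net growth.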

Tests used:
Assay in all cases: DTP human tumour cell line panel, 48 h
[1] = system: ACHN renal
[2] = system: LOX IMVI melanoma
[3] = system: SNB-75 CNS
[4] = system: TK-10 renal
[5] = system: KM12 colon
[6] = system: SF-539 CNS
[7] = system: CCRF-CEM leukemia
[8] = system: EKVX NSCLC
[9] = system: T-47D breast
[10] = system: BT-549 breast

CSCCOC(=O)C(=[N+]=[N-])c1ccc([N+](=O)[O-])cc1
TGI [1]: > 100 µM | TGI [2]: > 100 µM | TGI [3]: > 100 µM | TGI [4]: > 100 µM | TGI [5]: > 100 µM | TGI [6]: > 100 µM | TGI [7]: > 100 µM | TGI [8]: > 100 µM

OC1C2CCC1C1C3C=CC(C3)C21 (stereo not given)
TGI [1]: > 100 µM | TGI [2]: > 100 µM | TGI [3]: > 100 µM | TGI [4]: > 100 µM | TGI [5]: > 100 µM | TGI [7]: > 100 µM | TGI [8]: > 100 µM

COc1cc(-c2nn(-c3cccc(NC(=O)c4ccc(N5CCOCC5)c(C(F)(F)F)c4)c3)cc2-c2ccncc2)ccc1Cl
GI50 [9]: 0.471 µM | TGI [9]: > 28.9 µM | GI50 [1]: 0.585 µM | TGI [1]: > 100 µM | GI50 [2]: 0.371 µM | TGI [2]: 6.2 µM | GI50 [3]: 0.0818 µM | TGI [3]: 0.572 µM | GI50 [4]: 1.22 µM | TGI [4]: 19.5 µM | GI50 [10]: 0.932 µM | TGI [10]: > 42 µM | GI50 [5]: 0.213 µM | TGI [5]: 8.78 µM | GI50 [6]: 0.181 µM | TGI [6]: 0.552 µM | GI50 [7]: 0.236 µM | TGI [7]: > 100 µM

N#CC1=C(N)NC(=S)NC12Nc1ccccc1N2
GI50 [9]: 69.7 µM | TGI [9]: > 100 µM | GI50 [2]: 80.1 µM | TGI [2]: > 100 µM | GI50 [4]: 46.4 µM | TGI [4]: > 100 µM | GI50 [10]: 33.1 µM | TGI [10]: 91.2 µM | GI50 [5]: 23.6 µM | TGI [5]: > 100 µM | GI50 [6]: 42.4 µM | TGI [6]: > 100 µM | GI50 [7]: 18.2 µM | TGI [7]: > 100 µM | GI50 [8]: 65.6 µM | TGI [8]: > 100 µM

CCC[CH2][Sn]1([CH2]CCC)[O]C(=O)c2ccc(C)cc2[O]1
GI50 [1]: 0.404 µM | TGI [1]: 1.42 µM | GI50 [2]: 0.184 µM | TGI [2]: 0.357 µM | GI50 [3]: 0.226 µM | TGI [3]: 0.659 µM | GI50 [4]: 0.297 µM | TGI [4]: 0.766 µM | GI50 [5]: 1.06 µM | TGI [5]: 2.36 µM | GI50 [6]: 0.518 µM | TGI [6]: 1.73 µM | GI50 [7]: 0.222 µM | TGI [7]: 0.874 µM | GI50 [8]: 0.994 µM | TGI [8]: 2.23 µM

COc1ccc(-c2c(-c3cc(OC)c(OC)c(OC)c3)noc2N)cc1
GI50 [9]: 9.91 µM | TGI [9]: > 100 µM | GI50 [1]: < 0.0141 µM | TGI [1]: 43.8 µM | GI50 [2]: < 0.0141 µM | TGI [2]: > 100 µM | GI50 [3]: < 0.01 µM | TGI [3]: 94.2 µM | GI50 [4]: 0.461 µM | TGI [4]: > 56.5 µM | GI50 [10]: 0.0215 µM | TGI [10]: 0.0673 µM | GI50 [5]: < 0.01 µM | TGI [5]: > 36.6 µM | GI50 [7]: 0.0307 µM | TGI [7]: > 100 µM | GI50 [8]: 1.03 µM | TGI [8]: > 100 µM

C=CN(C)S(C)(=O)=O
GI50 [9]: > 100 µM | TGI [9]: > 100 µM | GI50 [1]: > 100 µM | TGI [1]: > 100 µM | GI50 [2]: > 100 µM | TGI [2]: > 100 µM | GI50 [3]: > 100 µM | TGI [3]: > 100 µM | GI50 [10]: > 100 µM | TGI [10]: > 100 µM | GI50 [5]: > 100 µM | TGI [5]: > 100 µM | GI50 [6]: > 100 µM | TGI [6]: > 100 µM | GI50 [7]: > 100 µM | TGI [7]: > 100 µM

O=C(NO)c1ccc(Cn2c(=O)n(-c3ccccc3F)c(=O)c3ccccc32)cc1
GI50 [9]: 1.38 µM | TGI [9]: 5.92 µM | GI50 [1]: 2.04 µM | TGI [1]: 5.59 µM | GI50 [2]: 1.71 µM | TGI [2]: 3.2 µM | GI50 [3]: 1.45 µM | TGI [3]: 4.78 µM | GI50 [4]: 1.43 µM | TGI [4]: 5.16 µM | GI50 [10]: 1.9 µM | TGI [10]: 4.13 µM | GI50 [6]: 1.53 µM | TGI [6]: 4.58 µM | GI50 [7]: 2.07 µM | TGI [7]: > 100 µM
